We go through four compounds from patent publication US11780845B2 (Relay Therapeutics, Inc., priority 2019, dated 2023).

One assay relates to SNU16 cells. As to the kind of experiment: SNU16 Cancer Cell Line Proliferation Assay. The format is cell-based. The conditions noted are these: Homo sapiens; SNU-16 cells. A digest of the protocol: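 SNU16 cells were seeded, held 24 h at 37 degrees, then dosed with an 11-point 3-fold dilution series prepared from a 10 mM DMSO stock. After 96 h incubation, viability was read by CellTiter Glo luminescence.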

For the next assay, the target named is FGFR2 (Homo sapiens (Human), UniProt P21802). As to the kind of experiment: FGFR2 Biochemical Caliper Assay. The procedure: Compounds of the present invention were also tested in a FGFR2 Biochemical Caliper Assay. Compounds were prepared in 10 mM DMSO solution and serially diluted into 11 concentrations by 3-fold dilution. […] 5 uL of ATP solution (100 uM) was added to start the reaction and the plate was incubated for 90 minutes, then 70 uL of stopping buffer (0.5M EDTA) was added to terminate the reaction. Each well was analyzed using EZ reader.

Structures are written as SMILES.

Sequence of FGFR2 (P21802 22-821): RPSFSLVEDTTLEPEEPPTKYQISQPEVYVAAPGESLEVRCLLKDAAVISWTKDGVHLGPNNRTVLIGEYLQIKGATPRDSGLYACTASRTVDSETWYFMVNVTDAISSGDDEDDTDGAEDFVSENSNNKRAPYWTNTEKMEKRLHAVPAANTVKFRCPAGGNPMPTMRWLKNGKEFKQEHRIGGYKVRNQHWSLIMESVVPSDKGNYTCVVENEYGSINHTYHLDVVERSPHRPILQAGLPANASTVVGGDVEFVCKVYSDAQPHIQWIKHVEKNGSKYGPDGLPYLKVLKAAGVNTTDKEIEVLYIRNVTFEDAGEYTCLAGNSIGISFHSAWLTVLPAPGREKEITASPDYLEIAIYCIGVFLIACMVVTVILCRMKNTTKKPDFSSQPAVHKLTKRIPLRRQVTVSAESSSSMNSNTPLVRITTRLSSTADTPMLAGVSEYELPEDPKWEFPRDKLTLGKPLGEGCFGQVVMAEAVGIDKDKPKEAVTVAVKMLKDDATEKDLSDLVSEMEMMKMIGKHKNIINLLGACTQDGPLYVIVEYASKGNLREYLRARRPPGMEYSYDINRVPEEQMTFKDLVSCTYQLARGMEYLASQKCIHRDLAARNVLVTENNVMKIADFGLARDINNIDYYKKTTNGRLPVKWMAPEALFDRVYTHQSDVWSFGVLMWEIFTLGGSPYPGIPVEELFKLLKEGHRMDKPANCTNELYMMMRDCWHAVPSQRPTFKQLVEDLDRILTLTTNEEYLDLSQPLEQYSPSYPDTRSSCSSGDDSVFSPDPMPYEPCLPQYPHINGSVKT

Take `C=CC(=O)Nc1ccc(-c2c(-c3ccc(Oc4cccc(C)n4)cc3)c3c(N)ncnc3n2C)cc1F` [Example 11]: the IC50 in the assay with SNU16 cells is no more than 0.1 µM; against FGFR2, less than 0.1 µM.

With `C=C(C)C(=O)Nc1ccc(-c2c(-c3ccc(Oc4cccc(COC)n4)cc3)c3c(N)ncnc3n2C)cc1` [Example 417], the IC50 in the assay with SNU16 cells was no more than 0.1 µM; against FGFR2, less than 0.1 µM.

Regarding `C=CC(=O)Nc1ccc(-c2c(-c3ccc(Oc4ncc(C(F)F)cn4)c(OC)c3)c3c(N)ncnc3n2C)cc1` [Example 113], the results for the half-inhibitory concentration (IC50) in the assay with SNU16 cells and against FGFR2 were no more than 0.1 µM and less than 0.1 µM, respectively.

Regarding `C=C(C)C(=O)Nc1ccc(-c2c(-c3ccc(Oc4nccc(C)n4)c(OC)c3)c3c(N)ncnc3n2C)cc1` [Example 446], the half-inhibitory concentration (IC50) with SNU16 cells is no more than 0.1 µM; against FGFR2, 0.1 to 0.25 µM.
